Legend:
MIA PaCa-2 cells = assay: Cell viability assay (MTT) in MIA PaCa-2 cells; type: cell-based; details: Homo sapiens, antiproliferative activity, 72 h
Procedure: MIA PaCa-2 cells (CRL-1420, ATCC) were maintained in DMEM media supplemented with 10% FBS, 2.5% HS, 1% GlutaMAX, 1% sodium pyruvate, 100 U/mL penicillin, and 100 μg/mL streptomycin. Cell culture media and additives were purchased from Gibco. Cells were plated in 96-well plates at |1−2.5|×10^4 cells per well in the DMEM growth media. One microliter of a 2-fold serially diluted compound solution in DMSO (Sigma) starting at 20 mM (100 μM final concentration) was added to each well. The final volume in each well was 200 μL, yielding a final DMSO concentration of 0.5%. Control wells contained 0.5% DMSO (100% viability) or 25% DMSO (background) and all reactions were done in triplicate. The plate was incubated for 72 h at 37° C. in a 5% CO2/95% air humidified atmosphere.
Measurement of cell viability was carried out using a modified method of Mosmann based on 3-(4,5-dimethylthiazol-2-yl)-2,5-diphenyltetrazolium bromide (MTT, Sigma). MTT solution was prepared fresh at 1 mg/mL in serum-free and phenol red-free RPMI 1640 media. After 200 μL of MTT solution was added to each well, the plate was incubated as described above for 3 h. The MTT solution was removed, and the formazan crystals were solubilized with 200 μL of isopropanol. The plate was read on a SpectraMax i3 spectrophotometer (Molecular Devices) at 570 nm for formazan and 650 nm for background subtraction. EC50 values were calculated by fitting the data in GraphPad Prism software. EC50 values were determined in triplicate.

Panc-1 cells = assay: Cell viability assay (MTT) in Panc-1 cells; type: cell-based; details: Homo sapiens, antiproliferative activity, 72 h
Procedure: Panc-1 cells are maintained in RPMI 1640 (Invitrogen 11875) media supplemented with 10% FBS, 1% Penicillin/Streptomycin and 1% Glutamax-1. Cells were plated in 96-well plates at 25×10^4 cells/ml. After 24 hours, compounds were added at 9, 3× dilutions in triplicate from 100 uM final concentration in the appropriate growth media. Plates were incubated for 72 hours at 37° C. in a 5% CO2/95% air humidified atmosphere after which time the media was removed and MTT was added in RPMI phenol red free media. The MTT was removed after 3 hours and formazan crystals were solubilized with 200 μL of isopropanol. Plates were read on a Molecular Devices SpectraMax i3 spectrophotometer at 570 nm for formazan and 690 nm for background subtraction. EC50 values were calculated by fitting the data in GraphPad Prism software.

[1] = Plasma stability assay, mouse plasma; type: in vitro ADME; details: 37° C., 24 h
Procedure: (§1) The plasma stability assay was performed in triplicate by incubating a compound in normal mouse and human plasma at 37° C. At 0, 1, 3, 6, and 24 h, aliquots of the plasma mixture were taken and quenched with 3 volumes of acetonitrile containing an appropriate internal standard. The samples were then vortexed and centrifuged at 14,000 rpm for 5 min. The supernatants were collected and analyzed by LC-MS/MS to determine the remaining percentage at various time points.
(§2) Quantification and analysis of compounds in biological samples were carried out on an AB Sciex QTrap 5500 mass spectrometer coupled with an Agilent 1260 Infinity HPLC. The chromatographic separation of compounds was achieved using a Phenomenex Kinetex C18 column (50×2.1 mm, 2.6 μm), and MS/MS analysis was conducted using an ESI ion source with MRM detection. The MS/MS detection parameters including declustering potential (DP), entrance potential (EP), collision energy (CE), and collision cell exit potential (CXP) were optimized for each compound.

[2] = Plasma stability assay, human plasma; type: in vitro ADME; details: 37° C., 24 h
Procedure: as §1, §2

[3] = Microsomal stability assay, human liver microsomes; type: in vitro ADME; details: pH 7.4; human liver microsomes 0.5 mg/mL, 1 mM NADPH, 1 μM compound; read-out: Microsomal Stability t1/2 Human
Procedure: (§3) The in vitro microsomal stability assay was conducted in triplicate in mouse and human liver microsomal systems. In a typical incubation, a compound (typically 1 μM final concentration) was spiked into the reaction mixture containing 0.5 mg/mL of liver microsomal protein and 1 mM of NADPH in 0.1 M potassium phosphate buffer (pH 7.4) at 37° C. At various time points, 1 volume of reaction aliquot was taken and quenched with 3 volumes of acetonitrile with an appropriate internal standard. The samples were then vortexed and centrifuged at 14,000 rpm for 5 min. The supernatants were collected and analyzed by LC-MS/MS to determine the in vitro metabolic half-life (t1/2) and intrinsic clearance (CLint). Verapamil was used as a positive control.
as §2

[4] = Microsomal stability assay, mouse liver microsomes; type: in vitro ADME; details: pH 7.4; mouse liver microsomes 0.5 mg/mL, 1 mM NADPH, 1 μM compound; read-out: Microsomal Stability t1/2 Mouse
Procedure: as §3, §2

| Structure (SMILES) | EC50 (MIA PaCa-2 cells) | EC50 (Panc-1 cells) | Plasma Stability (% remaining, 6 h/24 h) Mouse [1] | Plasma Stability (% remaining, 6 h/24 h) Human [2] | half-life at 1 μM [3] | half-life at 1 μM [4] |
| --- | --- | --- | --- | --- | --- | --- |
| CNC(=O)c1cccc(Cn2nc(C)c(NC(=O)c3ccc(COc4cccc(OC)c4)cc3)c2C)c1 [Compound D4b, 3-((4-(4-((3-Methoxyphenoxy)methyl)benzamido)-3,5-dimethyl-1H-pyrazol-1-yl)methyl)-N-methylbenzamide] | 6.2 µM | 6.2 µM | – | – | – | – |
| CNC(=O)c1cccc(Cn2nc(C)c(NC(=O)c3ccc(COc4ccc(OC)cc4)cc3)c2C)c1 [Compound D4c, 3-((4-(4-((4-Methoxyphenoxy)methyl)benzamido)-3,5-dimethyl-1H-pyrazol-1-yl)methyl)-N-methylbenzamide] | 8 µM | 48 µM | – | – | – | – |
| CNC(=O)c1cccc(Cn2nc(C)c(NC(=O)c3ccc(COc4ccccc4Cl)cc3)c2C)c1 [Compound D5a, 3-((4-(4-((2-Chlorophenoxy)methyl)benzamido)-3,5-dimethyl-1H-pyrazol-1-yl)methyl)-N-methylbenzamide] | 6.3 µM | 9.9 µM | – | – | – | – |
| CNC(=O)c1cccc(Cn2nc(C)c(NC(=O)c3ccc(COc4cccc(Cl)c4)cc3)c2C)c1 [Compound D5b, 3-((4-(4-((3-Chlorophenoxy)methyl)benzamido)-3,5-dimethyl-1H-pyrazol-1-yl)methyl)-N-methylbenzamide] | 5.9 µM | 0.038 µM | – | – | – | – |
| CNC(=O)c1cccc(Cn2nc(C)c(NC(=O)c3ccc(COc4ccc(Cl)cc4)cc3)c2C)c1 [Compound D5c, 3-((4-(4-((4-Chlorophenoxy)methyl)benzamido)-3,5-dimethyl-1H-pyrazol-1-yl)methyl)-N-methylbenzamide] | 4.2 µM | 2 µM | – | – | – | – |
| CNC(=O)c1cccc(Cn2nc(C)c(NC(=O)c3ccc(COc4ccccc4F)cc3)c2C)c1 [Compound D6a, 3-((4-(4-((2-Fluorophenoxy)methyl)benzamido)-3,5-dimethyl-1H-pyrazol-1-yl)methyl)-N-methylbenzamide] | 5.6 µM | 3 µM | – | – | – | – |
| CNC(=O)c1cccc(Cn2nc(C)c(NC(=O)c3ccc(COc4cccc(F)c4)cc3)c2C)c1 [Compound D6b, 3-((4-(4-((3-Fluorophenoxy)methyl)benzamido)-3,5-dimethyl-1H-pyrazol-1-yl)methyl)-N-methylbenzamide] | 7.7 µM | 0.21 µM | – | – | – | – |
| CNC(=O)c1cccc(Cn2nc(C)c(NC(=O)c3ccc(COc4ccc(F)cc4)cc3)c2C)c1 [Compound D6c, 3-((4-(4-((4-Fluorophenoxy)methyl)benzamido)-3,5-dimethyl-1H-pyrazol-1-yl)methyl)-N-methylbenzamide] | 3.1 µM | 6.9 µM | – | – | – | – |
| CNC(=O)c1cccc(Cn2nc(C)c(NC(=O)c3ccc(COc4ccccc4C#N)cc3)c2C)c1 [Compound D7a, 3-((4-(4-((2-Cyanophenoxy)methyl)benzamido)-3,5-dimethyl-1H-pyrazol-1-yl)methyl)-N-methylbenzamide] | 12 µM | 8.5 µM | – | – | – | – |
| CNC(=O)c1cccc(Cn2nc(C)c(NC(=O)c3ccc(COc4ccc(C#N)cc4)cc3)c2C)c1 [Compound D7c, 3-((4-(4-((4-Cyanophenoxy)methyl)benzamido)-3,5-dimethyl-1H-pyrazol-1-yl)methyl)-N-methylbenzamide] | 5.6 µM | 22 µM | – | – | – | – |
| CNC(=O)c1cccc(Cn2nc(C)c(NC(=O)c3ccc(COc4ccccc4C(F)(F)F)cc3)c2C)c1 [Compound D9a, 3-((3,5-Dimethyl-4-(4-((2-(trifluoromethyl)phenoxy)methyl)benzamido)-1H-pyrazol-1-yl)methyl)-N-methylbenzamide] | 10 µM | 0.44 µM | – | – | – | – |
| CNC(=O)c1cccc(Cn2nc(C)c(NC(=O)c3ccc(COc4cccc(C(F)(F)F)c4)cc3)c2C)c1 [Compound D9b, 3-((3,5-Dimethyl-4-(4-((3-(trifluoromethyl)phenoxy)-methyl)benzamido)-1H-pyrazol-1-yl)methyl)-N-methylbenzamide] | 2.3 µM | 0.76 µM | – | – | – | – |

Other lines, results leading:

| EC50 (MIA PaCa-2 cells) | EC50 (Panc-1 cells) | Plasma Stability (% remaining, 6 h/24 h) Mouse [1] | Plasma Stability (% remaining, 6 h/24 h) Human [2] | half-life at 1 μM [3] | half-life at 1 μM [4] | Structure (SMILES) |
| --- | --- | --- | --- | --- | --- | --- |
| 8.6 µM | – | —/100% | —/94% | 82 min | 144 min | CNC(=O)c1cncc(Cn2nc(C)c(NC(=O)c3ccc(COc4ccc(C(F)(F)F)cc4)cc3)c2C)c1 [Compound E3a, 5-((3,5-Dimethyl-4-(4-((4-(trifluoromethyl)phenoxy)methyl)benzamido)-1H-pyrazol-1-yl)methyl)-N-methylnicotinamide] |
| 7.6 µM | – | —/100% | —/98% | 74 min | 139 min | CNC(=O)c1cncc(Cn2nc(C)c(NC(=O)c3ccc(COc4ccc(C(F)(F)F)cc4C)cc3)c2C)c1 [Compound E3b, 5-((3,5-Dimethyl-4-(4-((2-methyl-4-(trifluoromethyl)phenoxy)methyl)benzamido)-1H-pyrazol-1-yl)methyl)-N-methylnicotinamide] |
| 13 µM | – | —/98% | —/97% | 65 min | 151 min | CNC(=O)c1ccnc(Cn2nc(C)c(NC(=O)c3ccc(COc4ccc(C(F)(F)F)cc4)cc3)c2C)c1 [Compound E4a, 2-((3,5-Dimethyl-4-(4-((4-(trifluoromethyl)phenoxy)methyl)benzamido)-1H-pyrazol-1-yl)methyl)-N-methylisonicotinamide] |
| 4.9 µM | – | —/99% | —/98% | 57 min | 126 min | CNC(=O)c1ccnc(Cn2nc(C)c(NC(=O)c3ccc(COc4ccc(C(F)(F)F)cc4C)cc3)c2C)c1 [Compound E4b, 2-((3,5-Dimethyl-4-(4-((2-methyl-4-(trifluoromethyl)phenoxy)methyl)benzamido)-1H-pyrazol-1-yl)methyl)-N-methylisonicotinamide] |
